Reference: patent US10144706B2 (BRISTOL-MYERS SQUIBB COMPANY, priority 2016, dated 2018)

These molecules were tested against T1, PD-1/PD-L1 interaction (PD-1-Ig / PD-L1-His) (Homo sapiens, UniProt Q9NZQ7) (assay: PD-1/PD-L1 Homogenous Time-Resolved Fluorescence (HTRF) binding assay). Conditions: IC50 range class; PD-L1-His 10 nM, PD-1-Ig 20 nM; read-out: Range or IC50.
T1 construct: hPDL1(18-239)-TVMV-His; TVMV protease site linker (C); made in house; host or cells: HEK293T
T1 sequence (Q9NZQ7 with tags, fused parts or gaps): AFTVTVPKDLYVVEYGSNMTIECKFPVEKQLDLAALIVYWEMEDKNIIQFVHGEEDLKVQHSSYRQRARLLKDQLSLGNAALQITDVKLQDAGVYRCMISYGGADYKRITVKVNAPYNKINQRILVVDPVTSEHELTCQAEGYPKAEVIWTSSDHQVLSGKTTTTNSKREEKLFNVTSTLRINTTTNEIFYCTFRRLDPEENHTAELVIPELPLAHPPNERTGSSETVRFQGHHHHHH
Summary of the method: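 Human PD-L1-His (10 nM final) was pre-incubated with inhibitor for 15 min, then PD-1-Ig (20 nM final) was added for a further 15 min in dPBS with 0.1% BSA and 0.05% Tween-20. Binding was detected by HTRF using Eu-cryptate anti-Ig (1 nM) and APC anti-His (20 nM).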
Cc1c(COc2cc(OCc3cncc(C#N)c3)c(CN[C@@H](C(=O)O)[C@H](C)O)cc2Cl)cccc1-c1cccc(COc2cc(OCc3cncc(C#N)c3)c(CN[C@@H](C(=O)O)[C@H](C)O)cc2Cl)c1C [Example 40880] gave an IC50 of 0.04 to 20 nM. With Cc1c(OCCCNC2C[C@H](CO)[C@@H](O)[C@H]2O)cccc1-c1cccc(OCCCN[C@@H]2C[C@H](CO)[C@@H](O)[C@H]2O)c1C (stereo partly drawn) [Example 2132, (1R,2S,5R)-3-((3-((3′-(3-(((1R,2S,3R,4R)-2,3-dihydroxy-4-(hydroxymethyl)cyclopentyl)amino)propoxy)-2,2′-dimethyl-[1,1′-biphenyl]-3-yl)oxy)propyl)amino)-5-(hydroxymethyl)cyclopentane-1,2-diol] the IC50 was 0.04 to 20 nM. In the case of Cc1c(COc2cc(OCc3cncc(C#N)c3)c(CN[C@H](C(=O)O)[C@H](C)O)cc2Cl)cccc1-c1cccc(COc2cc(OCc3cncc(C#N)c3)c(CN[C@H](C(=O)O)[C@H](C)O)cc2Cl)c1C [Example 41110], the IC50 is reported as 0.04 to 20 nM. Cc1c(OCCCNCc2ccccn2)cccc1-c1cccc(OCCCN2CC[C@@H](O)C2)c1C [Example 2024, (R)-1-(3-((2,2′-dimethyl-3′-(3-((pyridin-2-ylmethyl)amino)propoxy)-[1,1′-biphenyl]-3-yl)oxy)propyl)pyrrolidin-3-ol] gave an IC50 of 20.1 to 90 nM. For Cc1c(OCCCN2CC[C@@H](O)C2)cccc1-c1cccc(OCCCN2CCC[C@@H](C(=O)O)C2)c1C [Example 2074, (R)-1-(3-((3′-(3-((R)-3-hydroxypyrrolidin-1-yl)propoxy)-2,2′-dimethyl-[1,1′-biphenyl]-3-yl)oxy)propyl)piperidine-3-carboxylic acid], the IC50 was 90.1 to 1000 nM. Cc1c(COc2cc(OCc3cncc(C#N)c3)c(CN(CC3CCCO3)C(CCO)C(=O)O)cc2Cl)cccc1-c1cccc(COc2cc(OCc3cncc(C#N)c3)c(CN(CC3CCCO3)C(CCO)C(=O)O)cc2Cl)c1C (stereo not drawn) [Example 41020] showed an IC50 of 0.04 to 20 nM. Cc1c(COc2cc(OCc3ccc(-n4cccn4)nc3)c(CN(C)[C@@](C)(CO)C(=O)O)cc2Cl)cccc1-c1cccc(COc2cc(OCc3ccc(-n4cccn4)nc3)c(CN(C)[C@@](C)(CO)C(=O)O)cc2Cl)c1C [Example 5027, (2S,2′S)-2,2′-((((((2,2′-dimethyl-[1,1′-biphenyl]-3,3′-diyl)bis(methylene))bis(oxy))bis(2-((6-(1H-pyrazol-1-yl)pyridin-3-yl)methoxy)-5-chloro-4,1-phenylene))bis(methylene))bis(methylazanediyl))bis(3-hydroxy-2-methylpropanoic acid)] was tested, and the IC50 was 0.04 to 20 nM. Work on Cc1c(OCCCCCN2CC[C@@H](O)C2)cccc1-c1cccc(OCCCN2CC[C@@H](O)C2)c1C [Example 3003, (R)-1-(3-((3′-((5-((R)-3-hydroxypyrrolidin-1-yl)pentyl)oxy)-2,2′-dimethyl-[1,1′-biphenyl]-3-yl)oxy)propyl)pyrrolidin-3-ol] yielded an IC50 of 0.04 to 20 nM. In the case of Cc1c(COc2cc(OCc3cncc(C#N)c3)c(CNC(C(=O)O)C(C)C)cc2Cl)cccc1-c1cccc(COc2cc(OCc3cncc(C#N)c3)c(CNC(C(=O)O)C(C)C)cc2Cl)c1C (stereo not drawn) [Example 40440], the IC50 is reported as 0.04 to 20 nM. NCCCOc1cccc(-c2cccc(OCCCN)c2Cl)c1Cl [Example 2134, 3,3′-((2,2′-dichloro-[1,1′-biphenyl]-3,3′-diyl)bis(oxy))bis(propan-1-amine)] was tested, and the IC50 was 90.1 to 1000 nM. Work on Cc1c(COc2cc(OCc3cncc(C#N)c3)c(CO)cc2Cl)cccc1-c1cccc(COc2cc(OCc3cncc(C#N)c3)c(CN3CC[C@@H](O)C3)cc2Cl)c1C [Example 2126, (R)-5-((4-chloro-5-((3′-((2-chloro-5-((5-cyanopyridin-3-yl)methoxy)-4-((3-hydroxypyrrolidin-1-yl)methyl)phenoxy)methyl)-2,2′-dimethyl-[1,1′-biphenyl]-3-yl)methoxy)-2-(hydroxymethyl)phenoxy)methyl)nicotinonitrile] yielded an IC50 of 20.1 to 90 nM. With Cc1c(OCCCNC[C@H](O)C(=O)O)cccc1-c1cccc(OCCCN2CC[C@@H](O)C2)c1C [Example 2045, (S)-2-hydroxy-3-((3-((3′-(3-((R)-3-hydroxypyrrolidin-1-yl)propoxy)-2,2′-dimethyl-[1,1′-biphenyl]-3-yl)oxy)propyl)amino)propanoic acid] the IC50 was 90.1 to 1000 nM. In the case of Cc1c(COc2cc(OCc3cncc(C#N)c3)c(Cl)cc2Cl)cccc1-c1cccc(COc2cc(OCc3cncc(C#N)c3)c(CN[C@H](C(=O)O)[C@@H](C)[C@H](C)O)cc2Cl)c1C [Example 70050], the IC50 is reported as 90.1 to 1000 nM. Cc1c(COc2cc(OCc3cncc(C#N)c3)c(CN3C[C@@H](C)C[C@H]3C(=O)O)cc2Cl)cccc1-c1cccc(COc2cc(OCc3cncc(C#N)c3)c(CN3C[C@@H](C)C[C@H]3C(=O)O)cc2Cl)c1C [Example 40430] was tested, and the IC50 was 0.04 to 20 nM. For Cc1c(OCCCNCCS(C)(=O)=O)cccc1-c1cccc(OCCCN2CC[C@@H](O)C2)c1C [Example 2010, (R)-1-(3-((2,2′-dimethyl-3′-(3-((2-(methylsulfonyl)ethyl)amino)propoxy)-[1,1′-biphenyl]-3-yl)oxy)propyl)pyrrolidin-3-ol], the IC50 was 20.1 to 90 nM. Molecule C[C@@](CO)(NCc1cc(Cl)c(OCc2cccc(-c3cccc(COc4cc(OCc5cncc(C#N)c5)c(CN[C@@](C)(CO)C(=O)O)cc4Cl)c3Cl)c2Cl)cc1OCc1cncc(C#N)c1)C(=O)O [Example 40140] has an IC50 of 0.04 to 20 nM. Cc1c(OCCCNC[C@H](O)CO)cccc1-c1cccc(OCCCN2CC[C@@H](O)C2)c1C [Example 2011, (S)-3-((3-((3′-(3-((R)-3-hydroxypyrrolidin-1-yl)propoxy)-2,2′-dimethyl-[1,1′-biphenyl]-3-yl)oxy)propyl)amino)propane-1,2-diol] was tested, and the IC50 was 20.1 to 90 nM. For COc1cc(OCc2cccc(-c3cccc(COc4cc(OC)c(CNCCC(=O)O)cc4Cl)c3C)c2C)c(Cl)cc1CNCCC(=O)O [Example 5035, 3,3′-((((((2,2′-dimethyl-[1,1′-biphenyl]-3,3′-diyl)bis(methylene))bis(oxy))bis(5-chloro-2-methoxy-4,1-phenylene))bis(methylene))bis(azanediyl))dipropionic acid], the IC50 was 0.04 to 20 nM. Work on Cc1c(OCCCNCCO)cccc1-c1cccc(OCCCNCCO)c1C [Example 2027, 2,2′-((((2,2′-dimethyl-[1,1′-biphenyl]-3,3′-diyl)bis(oxy))bis(propane-3,1-diyl))bis(azanediyl))bis(ethan-1-ol)] yielded an IC50 of 20.1 to 90 nM. For O=C(NCCCOc1cccc(-c2cccc(OCCCNC(=O)C(O)CO)c2Cl)c1Cl)C(O)CO (stereo not drawn) [Example 2135, N,N′-(((2,2′-dichloro-[1,1′-biphenyl]-3,3′-diyl)bis(oxy))bis(propane-3,1-diyl))bis(2,3-dihydroxypropanamide)], the IC50 was 1000 to 10000 nM. In the case of Cc1c(COc2cc(OCc3cncc(C#N)c3)c(CO)cc2Cl)cccc1-c1cccc(COc2cc(OCc3cncc(C#N)c3)c(CN[C@H](CCO)C(=O)O)cc2Cl)c1C [Example 50210], the IC50 is reported as 0.04 to 20 nM. Molecule Cc1c(COc2cc(OCc3cncc(C#N)c3)c(CN[C@H](C(=O)O)C(C)(C)O)cc2Cl)cccc1-c1cccc(COc2cc(OCc3cncc(C#N)c3)c(CN[C@H](C(=O)O)C(C)(C)O)cc2Cl)c1C [Example 40090] has an IC50 of 0.04 to 20 nM. With Cc1c(OCCCNCCc2ccncc2)cccc1-c1cccc(OCCCNCCc2ccncc2)c1C [Example 2028, 3,3′-((2,2′-dimethyl-[1,1′-biphenyl]-3,3′-diyl)bis(oxy))bis(N-(2-(pyridin-4-yl)ethyl)propan-1-amine)] the IC50 was 0.04 to 20 nM. COC(=O)[C@](C)(CO)NCc1cc(Cl)c(OCc2cccc(-c3cccc(COc4cc(OCc5cncc(C#N)c5)c(CN[C@@](C)(CO)C(=O)OC)cc4Cl)c3C)c2C)cc1OCc1cncc(C#N)c1 [Example 40150] showed an IC50 of 20.1 to 90 nM. Cc1c(COc2cc(OCc3cncc(C#N)c3)c(CN[C@@H](CO)C(=O)O)cc2Cl)cccc1-c1cccc(COc2cc(OCc3cncc(C#N)c3)c(CN[C@H](CO)C(=O)O)cc2Cl)c1C [Example 40260] gave an IC50 of 0.04 to 20 nM. Cc1c(COc2cc(OCc3cc(F)cc(F)c3)c(CN(C)[C@H](C(=O)O)C(C)C)cc2Cl)cccc1-c1cccc(COc2cc(OCc3cc(F)cc(F)c3)c(CN(C)[C@H](C(=O)O)C(C)C)cc2Cl)c1C [Example 5015, (2S,2′S)-2,2′-((((((2,2′-dimethyl-[1,1′-biphenyl]-3,3′-diyl)bis(methylene))bis(oxy))bis(5-chloro-2-((3,5-difluorobenzyl)oxy)-4,1-phenylene))bis(methylene))bis(methylazanediyl))bis(3-methylbutanoic acid)] showed an IC50 of 20.1 to 90 nM. Work on Cc1c(OCCCN[C@@H](CO)C(=O)O)cccc1-c1cccc(OCCCN2CC[C@@H](O)C2)c1C [Example 2012, (3-((3′-(3-((R)-3-hydroxypyrrolidin-1-yl)propoxy)-2,2′-dimethyl-[1,1′-biphenyl]-3-yl)oxy)propyl)-L-serine] yielded an IC50 of 90.1 to 1000 nM. COc1cc(OCc2cccc(-c3cccc(COc4cc(OC)c(CN(C)Cc5cncs5)cc4Cl)c3C)c2C)c(Cl)cc1CN(C)Cc1cncs1 [Example 5039, 1,1′-((((2,2′-dimethyl-[1,1′-biphenyl]-3,3′-diyl)bis(methylene))bis(oxy))bis(5-chloro-2-methoxy-4,1-phenylene))bis(N-methyl-N-(thiazol-5-ylmethyl)methanamine)] gave an IC50 of 90.1 to 1000 nM. Work on Cc1c(COc2cc(OCc3cncc(C#N)c3)c(CN(C)C(CCO)C(=O)O)cc2Cl)cccc1-c1cccc(COc2cc(OCc3cncc(C#N)c3)c(CN(C)C(CCO)C(=O)O)cc2Cl)c1C (stereo not drawn) [Example 40810] yielded an IC50 of 20.1 to 90 nM.

Same assay, conditions: numeric IC50; PD-L1-His 10 nM, PD-1-Ig 20 nM; read-out: Range or IC50
In the case of CCC[C@@H](C(=O)O)N(C)Cc1cc(Cl)c(OCc2cccc(-c3cccc(COc4cc(OCc5cc(F)cc(F)c5)c(CN(C)[C@@H](CCC)C(=O)O)cc4Cl)c3C)c2C)cc1OCc1cc(F)cc(F)c1 [Example 5016, (2S,2′S)-2,2′-((((((2,2′-dimethyl-[1,1′-biphenyl]-3,3′-diyl)bis(methylene))bis(oxy))bis(5-chloro-2-((3,5-difluorobenzyl)oxy)-4,1-phenylene))bis(methylene))bis(methylazanediyl))dipentanoic acid], the IC50 is reported as 31 nM.
